This note sets out measurements from patent US9434711B2 (Janssen Pharmaceutica, NV, priority 2007, dated 2016).

The assay has as its target canine TRPM8 (Canis lupus familiaris, UniProt Q1A7N1). Nature of the assay: In Vitro Canine TRPM8 Functional Assay (Ca2+ fluorescence, icilin activation). The settings on record: for inhibition at 0.5 µM: compound at 0.5 μM, read-out: % Inh @ 0.5; for inhibition at 0.5 µM / inhibition at 0.2 µM: canine TRPM8, icilin activation; for IC50: HEK293 cells stably expressing canine TRPM8, icilin activation, eight-point dose-response, read-out: IC50; for inhibition at 0.2 µM: compound at 0.2 μM, read-out: % Inh @ 0.2. Type of assay: cell-based. The gist of the method:
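HEK293 cells stably expressing canine TRPM8 loaded with Calcium 3 dye; compound added and Ca2+ fluorescence monitored 5 min before icilin at a final level giving ~80% maximal response, read on FLIPR or FDSS. EC50 or IC50 from eight-point dose-response, quadruplicate wells per point.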

canine TRPM8, sequence (Q1A7N1 1-1104): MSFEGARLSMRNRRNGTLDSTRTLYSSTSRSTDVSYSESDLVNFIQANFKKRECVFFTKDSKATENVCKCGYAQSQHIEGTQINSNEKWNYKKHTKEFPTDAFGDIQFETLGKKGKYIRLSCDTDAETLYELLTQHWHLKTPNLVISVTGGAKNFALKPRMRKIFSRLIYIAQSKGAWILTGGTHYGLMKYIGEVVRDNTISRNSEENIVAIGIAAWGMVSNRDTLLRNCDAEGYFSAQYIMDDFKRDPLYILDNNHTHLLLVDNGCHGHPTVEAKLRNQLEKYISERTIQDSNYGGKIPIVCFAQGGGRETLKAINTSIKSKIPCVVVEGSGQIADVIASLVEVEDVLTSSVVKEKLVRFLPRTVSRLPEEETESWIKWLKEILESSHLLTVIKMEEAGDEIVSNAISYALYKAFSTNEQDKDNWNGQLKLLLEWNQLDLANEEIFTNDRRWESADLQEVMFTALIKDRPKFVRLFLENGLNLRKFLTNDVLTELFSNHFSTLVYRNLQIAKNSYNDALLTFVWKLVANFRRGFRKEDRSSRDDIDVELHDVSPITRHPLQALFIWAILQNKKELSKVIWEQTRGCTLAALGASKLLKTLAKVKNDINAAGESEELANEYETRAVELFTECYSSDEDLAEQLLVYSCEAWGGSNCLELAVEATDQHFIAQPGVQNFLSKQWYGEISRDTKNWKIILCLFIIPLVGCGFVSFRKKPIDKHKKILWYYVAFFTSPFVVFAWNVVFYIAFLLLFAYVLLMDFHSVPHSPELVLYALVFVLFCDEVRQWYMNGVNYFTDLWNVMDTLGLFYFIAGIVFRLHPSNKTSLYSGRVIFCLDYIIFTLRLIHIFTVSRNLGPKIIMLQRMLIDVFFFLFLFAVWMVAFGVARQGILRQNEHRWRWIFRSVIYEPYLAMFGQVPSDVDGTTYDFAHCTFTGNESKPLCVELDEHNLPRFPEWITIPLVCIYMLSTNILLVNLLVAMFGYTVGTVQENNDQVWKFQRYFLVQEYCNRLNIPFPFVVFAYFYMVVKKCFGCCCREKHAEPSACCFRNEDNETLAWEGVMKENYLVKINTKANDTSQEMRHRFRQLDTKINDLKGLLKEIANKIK

On to `O=C1NCCN1CCN(c1sc2ccccc2c1Cl)S(=O)(=O)c1ccccc1` [Compound 91, N-(3-Chloro-benzo[b]thiophen-2-yl)-N-[2-(2-oxo-imidazolidin-1-yl)-ethyl]-benzenesulfonamide], for which the inhibition at 0.5 µM was 33%. For the compound `O=S(=O)(c1ccccc1)N(CCN1CCOCC1)c1sc2ccccc2c1Cl` [Compound 92, N-(3-Chloro-benzo[b]thiophen-2-yl)-N-(2-morpholin-4-yl-ethyl)-benzenesulfonamide], the IC50 (in general, the concentration that inhibits the measured activity by half) amounted to 68.2 nM and the inhibition at 0.2 µM was determined as 79%. For `COC(=O)[C@H](C)CN(c1sc2ccccc2c1C)S(=O)(=O)c1ccccc1` [Compound 93, N-(3-Methyl-benzo[b]thiophen-2-yl)-N-[2(R)-methyl-2-carbomethoxy-ethyl]-benzenesulfonamide] the same measures were 11 nM and 98%. For `COC(=O)[C@@H](C)CN(c1sc2ccccc2c1C)S(=O)(=O)c1ccccc1` [Compound 94, N-(3-Methyl-benzo[b]thiophen-2-yl)-N-[2(S)-methyl-2-carbomethoxy-ethyl]-benzenesulfonamide] the same measures were 18 nM and 98%. For `Cc1c(N(CCN2CCOCC2)S(=O)(=O)c2ccccc2)sc2ccccc12` [Compound 95, N-(3-Methyl-benzo[b]thiophen-2-yl)-N-(2-morpholin-4-yl-ethyl)-benzenesulfonamide] the same measures were 6 nM and 97%. With `Cc1c(N(CCN2CCCCC2)S(=O)(=O)c2ccccc2)sc2ccccc12` [Compound 96, N-(3-Methyl-benzo[b]thiophen-2-yl)-N-(2-piperidin-1-yl-ethyl)-benzenesulfonamide], the IC50 was 4 nM and the inhibition at 0.2 µM was determined as 98%.

For `Cc1c(N(CC2CC2)S(=O)(=O)c2ccccc2)sc2ccccc12` [Compound 97, N-(Cyclopropylmethyl)-N-(3-methyl-benzo[b]thiophen-2-yl)-benzenesulfonamide], the IC50 stood at 14 nM and the inhibition at 0.2 µM amounted to 96%. The matching figures for `CSCCN(c1sc2ccccc2c1C)S(=O)(=O)c1ccccc1` [Compound 98, N-(3-Methyl-benzo[b]thiophen-2-yl)-N-(2-methylsulfanyl-ethyl)-benzenesulfonamide]: 15 nM and 97%.

`COCCN(c1sc2ccccc2c1C)S(=O)(=O)c1ccccc1` [Compound 99, N-(2-Methoxy-ethyl)-N-(3-methyl-benzo[b]thiophen-2-yl)-benzenesulfonamide]: the 50% inhibitory concentration (IC50) is 18 nM and the inhibition at 0.2 µM came out at 99%. `Cc1c(N(CCOC(C)(C)C)S(=O)(=O)c2ccccc2)sc2ccccc12` [Compound 100, N-(2-tert-Butoxy-ethyl)-N-(3-methyl-benzo[b]thiophen-2-yl)-benzenesulfonamide]: the IC50 worked out at 6.8 nM and the inhibition at 0.2 µM is 103%. Regarding `COC(=O)CN(c1sc2ccccc2c1C)S(=O)(=O)c1ccccc1` [Compound 101, N-(3-Methyl-benzo[b]thiophen-2-yl)-N-(carbomethoxy-methyl)-benzenesulfonamide], the half-inhibitory concentration (IC50) is 30.5 nM and the inhibition at 0.2 µM is 101%. The matching figures for `Cc1c(N(CC(F)F)S(=O)(=O)c2ccccc2)sc2ccccc12` [Compound 102, N-(2,2-Difluoro-ethyl)-N-(3-methyl-benzo[b]thiophen-2-yl)-benzenesulfonamide]: 40.2 nM and 98%. For `Cc1c(N(CC2CCCN2C(=O)OC(C)(C)C)S(=O)(=O)c2ccccc2)sc2ccccc12` (stereo not shown) [Compound 103, N-(3-Methyl-benzo[b]thiophen-2-yl)-N-{[1-(carbo-tert-butoxy)pyrrolidin-2-yl]-methyl}-benzenesulfonamide] the same measures were 90.8 nM and 80%. The matching figures for `Cc1c(N(CCc2ccccc2)S(=O)(=O)c2ccccc2)sc2ccccc12` [Compound 104, N-(3-Methyl-benzo[b]thiophen-2-yl)-N-(phenethyl)-benzenesulfonamide]: 8.9 nM and 98%. Consider `CCS(=O)(=O)N(CCOC)c1sc2ccccc2c1C` [Compound 105, N-(2-Methoxy-ethyl)-N-(3-methyl-benzo[b]thiophen-2-yl)-ethanesulfonamide], for which the inhibition at 0.2 µM is 20%. Consider `CCS(=O)(=O)N(CCC(F)(F)F)c1sc2ccccc2c1C` [Compound 106, N-(3-Methyl-benzo[b]thiophen-2-yl)-N-(3,3,3-trifluoro-propyl)-ethanesulfonamide], for which the half-maximal inhibitory concentration (IC50) came out at 19 nM and the inhibition at 0.2 µM was 93%. Regarding `CC#CCCN(c1sc2ccccc2c1C)S(=O)(=O)CC` [Compound 107, N-(3-Methyl-benzo[b]thiophen-2-yl)-N-(pent-3-ynyl)-ethanesulfonamide], the inhibition at 0.2 µM was determined as 72%. The same measure, in the same setting: for `CCS(=O)(=O)N(CCSC)c1sc2ccccc2c1C` [Compound 108, N-(3-Methyl-benzo[b]thiophen-2-yl)-N-(2-methylsulfanyl-ethyl)-ethanesulfonamide] the value was 71%; for `CCS(=O)(=O)N(C[C@@H]1CCC(=O)N1)c1sc2ccccc2c1C` [Compound 109, N-(3-Methyl-benzo[b]thiophen-2-yl)-N-(5-oxo-(S)-pyrrolidin-2-ylmethyl)-ethanesulfonamide], 14%. With `CCS(=O)(=O)N(CCOC(C)(C)C)c1sc2ccccc2c1C` [Compound 110, N-(2-tert-Butoxy-ethyl)-N-(3-methyl-benzo[b]thiophen-2-yl)-ethanesulfonamide], the IC50 was 7.2 nM and the inhibition at 0.2 µM is 97%. For `CCS(=O)(=O)N(CC(F)F)c1sc2ccccc2c1C` [Compound 111, N-(2,2-Difluoro-ethyl)-N-(3-methyl-benzo[b]thiophen-2-yl)-ethanesulfonamide] the same measures were 92 nM and 68%. For `CCS(=O)(=O)N(CC1CC1)c1sc2ccccc2c1C` [Compound 112, N-(Cyclopropylmethyl)-N-(3-methyl-benzo[b]thiophen-2-yl)-ethanesulfonamide] the same measures were 30.2 nM and 95%.

As to `CCS(=O)(=O)N(CCN1CCOCC1)c1sc2ccccc2c1C` [Compound 113, N-(3-Methyl-benzo[b]thiophen-2-yl)-N-(2-morpholin-4-yl-ethyl)-ethanesulfonamide], the inhibition at 0.2 µM amounted to 19%. In the case of `CCS(=O)(=O)N(CC1CCCN1C(=O)OC(C)(C)C)c1sc2ccccc2c1C` (stereo not shown) [Compound 114, N-(3-Methyl-benzo[b]thiophen-2-yl)-N-{[1-(carbo-tert-butoxy)pyrrolidin-2-yl]-methyl}-ethanesulfonamide], the IC50 was 51.1 nM and the inhibition at 0.2 µM was determined as 93%.

Take `O=S(=O)(c1ccccc1)N(CCc1ccccc1)c1cc2ccccc2s1` [Compound 115, N-(Benzo[b]thiophen-2-yl)-N-(phenethyl)-benzenesulfonamide]: the 50% inhibitory concentration (IC50) worked out at 79.5 nM and the inhibition at 0.5 µM is 95%. Consider `C=CCN(c1cc2ccccc2s1)S(=O)(=O)c1ccccc1` [Compound 116, N-(Allyl)-N-(benzo[b]thiophen-2-yl)-benzenesulfonamide], for which the IC50 was 102 nM and the inhibition at 0.5 µM amounted to 98%. On to `CCCCN(c1cc2ccccc2s1)S(=O)(=O)c1ccccc1` [Compound 117, N-(Benzo[b]thiophen-2-yl)-N-(butyl)-benzenesulfonamide], for which the inhibition at 0.5 µM is 99%. In the case of `O=S(=O)(c1ccccc1)N(CC1CCCCC1)c1cc2ccccc2s1` [Compound 118, N-(Benzo[b]thiophen-2-yl)-N-(cyclohexylmethyl)-benzenesulfonamide], the IC50 came to 48 nM and the inhibition at 0.5 µM is 100%.

Regarding `O=S(=O)(c1ccccc1)N(c1cc2ccccc2s1)C1CCCCC1` [Compound 119, N-(Benzo[b]thiophen-2-yl)-N-(cyclohexyl)-benzenesulfonamide], the IC50 was 134 nM and the inhibition at 0.5 µM was 93%. As to `CSCCN(c1cc2ccccc2s1)S(=O)(=O)c1ccccc1` [Compound 120, N-(Benzo[b]thiophen-2-yl)-N-(2-methylsulfanyl-ethyl)-benzenesulfonamide], the half-maximal inhibitory concentration (IC50) amounted to 156 nM and the inhibition at 0.2 µM came out at 75%. The matching figures for `CCCCN(c1sc2ccccc2c1C(C)=O)S(=O)(=O)CC` [Compound 121, N-(3-Acetyl-benzo[b]thiophen-2-yl)-N-(butyl)-ethanesulfonamide]: 35 nM and 86%. In the case of `CCS(=O)(=O)N(CC1CC1)c1sc2ccccc2c1C(C)=O` [Compound 122, N-(3-Acetyl-benzo[b]thiophen-2-yl)-N-(cyclopropylmethyl)-ethanesulfonamide], the inhibition at 0.2 µM amounted to 23%. Still for that read-out and setting: for `CCS(=O)(=O)N(CCOC(C)(C)C)c1sc2ccccc2c1C(C)=O` [Compound 123, N-(3-Acetyl-benzo[b]thiophen-2-yl)-N-(2-tert-butoxy-ethyl)-ethanesulfonamide] the value was 60%. Still for that read-out and setting: for `CCS(=O)(=O)N(CCN1CCOCC1)c1sc2ccccc2c1C(C)=O` [Compound 124, N-(3-Acetyl-benzo[b]thiophen-2-yl)-N-(2-morpholin-4-yl-ethyl)-ethanesulfonamide] the value was 14%. As for `Cc1c(N(Cc2ccc(F)c(F)c2)S(=O)(=O)Cc2ccccc2)sc2ccccc12` [Compound 126, N-(3,4-Difluoro-benzyl)-N-(3-methyl-benzo[b]thiophen-2-yl)-phenyl-methanesulfonamide], the inhibition at 0.5 µM turned out to be 45%. For `Cc1c(N(Cc2ccc(F)c(F)c2)S(=O)(=O)c2cccc(F)c2)sc2ccccc12` [Compound 127, N-(3,4-Difluoro-benzyl)-N-(3-methyl-benzo[b]thiophen-2-yl)-3-fluoro-benzenesulfonamide], the half-maximal inhibitory concentration (IC50) came out at 8 nM and the inhibition at 0.5 µM came out at 98%.
